Test results published in ChEMBL document CHEMBL4507303, “Data for DCP probe TP-004” (2021).
Active and inactive are the calls of the source. The rule behind the calls is not given here.

How the values were obtained:
[1] = biological target: cAMP-dependent protein kinase catalytic subunit beta (Homo sapiens) (UniProt P22694); details: Compound concentration 1000.0 nM
[2] = biological target: Serine/threonine-protein kinase PAK 6 (Homo sapiens) (UniProt Q9NQU5); details: Compound concentration 1000.0 nM
[3] = biological target: G protein-coupled receptor kinase 3 (Homo sapiens) (UniProt P35626); details: Compound concentration 1000.0 nM
[4] = biological target: Ribosomal protein S6 kinase alpha-6 (Homo sapiens) (UniProt Q9UK32); details: Compound concentration 1000.0 nM
[5] = test system: Tyrosine-protein kinase ABL1 (Homo sapiens), P00519 [Y253F]; details: Compound concentration 1000.0 nM
[6] = test system: Mast/stem cell growth factor receptor Kit (Homo sapiens), P10721 [V559D,V654A]; details: Compound concentration 1000.0 nM
[7] = biological target: Mitogen-activated protein kinase kinase kinase 1 (Homo sapiens) (UniProt Q13233); details: Compound concentration 1000.0 nM
[8] = biological target: Mitogen-activated protein kinase 10 (Homo sapiens) (UniProt P53779); details: Compound concentration 1000.0 nM
[9] = biological target: Atypical kinase COQ8B, mitochondrial (Homo sapiens) (UniProt Q96D53); details: Compound concentration 1000.0 nM
[10] = biological target: Kappa-type opioid receptor (Homo sapiens) (UniProt P41145); details: Compound concentration 10.0 uM
[11] = biological target: Phosphatidylinositol 3-kinase catalytic subunit type 3 (Homo sapiens) (UniProt Q8NEB9); details: Compound concentration 1000.0 nM
[12] = biological target: Mitogen-activated protein kinase kinase kinase kinase 4 (Homo sapiens) (UniProt O95819); details: Compound concentration 1000.0 nM
[13] = test system: Mast/stem cell growth factor receptor Kit (Homo sapiens), P10721 [V559D,T670I]; details: Compound concentration 1000.0 nM
[14] = biological target: Serine/threonine-protein kinase SIK3 (Homo sapiens) (UniProt Q9Y2K2); details: Compound concentration 1000.0 nM
[15] = biological target: Ephrin type-A receptor 6 (Homo sapiens) (UniProt Q9UF33); details: Compound concentration 1000.0 nM
[16] = biological target: Serine/threonine-protein kinase MRCK gamma (Homo sapiens) (UniProt Q6DT37); details: Compound concentration 1000.0 nM
[17] = biological target: Beta-2 adrenergic receptor (Homo sapiens) (UniProt P07550); details: Compound concentration 10.0 uM
[18] = biological target: Mitogen-activated protein kinase kinase kinase 12 (Homo sapiens) (UniProt Q12852); details: Compound concentration 1000.0 nM
[19] = biological target: Rhodopsin kinase GRK7 (Homo sapiens) (UniProt Q8WTQ7); details: Compound concentration 1000.0 nM
[20] = biological target: Phosphatidylinositol 4-phosphate 3-kinase C2 domain-containing subunit beta (Homo sapiens) (UniProt O00750); details: Compound concentration 1000.0 nM
[21] = biological target: Mitogen-activated protein kinase 1 (Homo sapiens) (UniProt P28482); details: Compound concentration 1000.0 nM
[22] = biological target: Epidermal growth factor receptor (Homo sapiens) (UniProt P00533); details: Compound concentration 1000.0 nM
[23] = biological target: Serine/threonine-protein kinase ULK3 (Homo sapiens) (UniProt Q6PHR2); details: Compound concentration 1000.0 nM
[24] = biological target: Activin receptor type-1B (Homo sapiens) (UniProt P36896); details: Compound concentration 1000.0 nM
[25] = biological target: Serine/threonine-protein kinase TAO2 (Homo sapiens) (UniProt Q9UL54); details: Compound concentration 1000.0 nM
[26] = biological target: Cyclin-dependent kinase 4 (Homo sapiens) (UniProt P11802); details: Compound concentration 1000.0 nM
[27] = test system: Phosphatidylinositol 4,5-bisphosphate 3-kinase catalytic subunit alpha isoform (Homo sapiens), P42336 [C420R]; details: Compound concentration 1000.0 nM
[28] = biological target: Alpha-2A adrenergic receptor (Homo sapiens) (UniProt P08913); details: Compound concentration 10.0 uM
[29] = biological target: Casein kinase II subunit alpha (Homo sapiens) (UniProt P68400); details: Compound concentration 1000.0 nM
[30] = biological target: Tyrosine-protein kinase ABL2 (Homo sapiens) (UniProt P42684); details: Compound concentration 1000.0 nM
[31] = biological target: Proto-oncogene tyrosine-protein kinase receptor Ret (Homo sapiens) (UniProt P07949); details: Compound concentration 1000.0 nM
[32] = biological target: Methionine aminopeptidase 2 (Homo sapiens, UniProt P50579); assay: Biochemical activity-MetAP2 using Mn
[33] = biological target: Cyclin-dependent kinase 14 (Homo sapiens) (UniProt O94921); details: Compound concentration 1000.0 nM
[34] = biological target: SRSF protein kinase 3 (Homo sapiens) (UniProt Q9UPE1); details: Compound concentration 1000.0 nM
[35] = biological target: Dual specificity mitogen-activated protein kinase kinase 4 (Homo sapiens) (UniProt P45985); details: Compound concentration 1000.0 nM
[36] = biological target: Mitogen-activated protein kinase 12 (Homo sapiens) (UniProt P53778); details: Compound concentration 1000.0 nM
[37] = test system: Tyrosine-protein kinase ABL1 (Homo sapiens), P00519 [F317L]; details: Compound concentration 1000.0 nM
[38] = biological target: GABA-A receptor; anion channel (Rattus norvegicus) (UniProt O09028+P15431+P18506+P18508+P19969+P20236+P23574+P23576+P28471+P28473+P30191+P62813+P63079+P63138+Q91ZM7+Q9ES14); details: Compound concentration 10.0 uM
[39] = biological target: Activated CDC42 kinase 1 (Homo sapiens) (UniProt Q07912); details: Compound concentration 1000.0 nM
[40] = biological target: Serine/threonine-protein kinase WNK3 (Homo sapiens) (UniProt Q9BYP7); details: Compound concentration 1000.0 nM
[41] = test system: Tyrosine-protein kinase ABL1 (Homo sapiens), P00519 [E255K]; details: Compound concentration 1000.0 nM
[42] = biological target: Protein-tyrosine kinase 2-beta (Homo sapiens) (UniProt Q14289); details: Compound concentration 1000.0 nM
[43] = biological target: Tyrosine-protein kinase receptor TYRO3 (Homo sapiens) (UniProt Q06418); details: Compound concentration 1000.0 nM
[44] = biological target: Insulin-like growth factor 1 receptor (Homo sapiens) (UniProt P08069); details: Compound concentration 1000.0 nM

Chain of Alpha-2A adrenergic receptor (Homo sapiens) (P08913 whole entry): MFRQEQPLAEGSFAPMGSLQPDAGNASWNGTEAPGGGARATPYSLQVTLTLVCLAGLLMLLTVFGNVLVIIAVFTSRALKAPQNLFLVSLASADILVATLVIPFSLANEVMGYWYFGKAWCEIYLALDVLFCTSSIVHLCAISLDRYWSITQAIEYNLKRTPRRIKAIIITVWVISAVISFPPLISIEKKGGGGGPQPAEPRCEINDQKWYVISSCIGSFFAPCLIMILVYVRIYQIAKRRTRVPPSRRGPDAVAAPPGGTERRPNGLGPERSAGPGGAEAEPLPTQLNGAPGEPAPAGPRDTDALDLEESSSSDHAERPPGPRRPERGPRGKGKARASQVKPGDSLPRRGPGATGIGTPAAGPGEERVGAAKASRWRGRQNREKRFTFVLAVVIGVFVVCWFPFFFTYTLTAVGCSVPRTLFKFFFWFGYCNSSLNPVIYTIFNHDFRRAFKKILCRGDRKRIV
Chain of Dual specificity mitogen-activated protein kinase kinase 4 (Homo sapiens) (P45985 whole entry): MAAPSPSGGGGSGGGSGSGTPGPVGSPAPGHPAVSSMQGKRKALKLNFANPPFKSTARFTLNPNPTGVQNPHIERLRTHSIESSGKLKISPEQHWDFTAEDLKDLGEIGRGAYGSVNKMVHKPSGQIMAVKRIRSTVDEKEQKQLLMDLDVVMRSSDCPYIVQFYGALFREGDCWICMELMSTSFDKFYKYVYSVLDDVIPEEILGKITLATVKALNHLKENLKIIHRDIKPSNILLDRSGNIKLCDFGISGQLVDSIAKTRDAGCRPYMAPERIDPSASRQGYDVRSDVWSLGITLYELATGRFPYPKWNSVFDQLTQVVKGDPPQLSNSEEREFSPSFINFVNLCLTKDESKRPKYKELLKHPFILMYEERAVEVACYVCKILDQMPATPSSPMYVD
Chain of Phosphatidylinositol 4-phosphate 3-kinase C2 domain-containing subunit beta (Homo sapiens) (O00750 whole entry, the tested form may be a part): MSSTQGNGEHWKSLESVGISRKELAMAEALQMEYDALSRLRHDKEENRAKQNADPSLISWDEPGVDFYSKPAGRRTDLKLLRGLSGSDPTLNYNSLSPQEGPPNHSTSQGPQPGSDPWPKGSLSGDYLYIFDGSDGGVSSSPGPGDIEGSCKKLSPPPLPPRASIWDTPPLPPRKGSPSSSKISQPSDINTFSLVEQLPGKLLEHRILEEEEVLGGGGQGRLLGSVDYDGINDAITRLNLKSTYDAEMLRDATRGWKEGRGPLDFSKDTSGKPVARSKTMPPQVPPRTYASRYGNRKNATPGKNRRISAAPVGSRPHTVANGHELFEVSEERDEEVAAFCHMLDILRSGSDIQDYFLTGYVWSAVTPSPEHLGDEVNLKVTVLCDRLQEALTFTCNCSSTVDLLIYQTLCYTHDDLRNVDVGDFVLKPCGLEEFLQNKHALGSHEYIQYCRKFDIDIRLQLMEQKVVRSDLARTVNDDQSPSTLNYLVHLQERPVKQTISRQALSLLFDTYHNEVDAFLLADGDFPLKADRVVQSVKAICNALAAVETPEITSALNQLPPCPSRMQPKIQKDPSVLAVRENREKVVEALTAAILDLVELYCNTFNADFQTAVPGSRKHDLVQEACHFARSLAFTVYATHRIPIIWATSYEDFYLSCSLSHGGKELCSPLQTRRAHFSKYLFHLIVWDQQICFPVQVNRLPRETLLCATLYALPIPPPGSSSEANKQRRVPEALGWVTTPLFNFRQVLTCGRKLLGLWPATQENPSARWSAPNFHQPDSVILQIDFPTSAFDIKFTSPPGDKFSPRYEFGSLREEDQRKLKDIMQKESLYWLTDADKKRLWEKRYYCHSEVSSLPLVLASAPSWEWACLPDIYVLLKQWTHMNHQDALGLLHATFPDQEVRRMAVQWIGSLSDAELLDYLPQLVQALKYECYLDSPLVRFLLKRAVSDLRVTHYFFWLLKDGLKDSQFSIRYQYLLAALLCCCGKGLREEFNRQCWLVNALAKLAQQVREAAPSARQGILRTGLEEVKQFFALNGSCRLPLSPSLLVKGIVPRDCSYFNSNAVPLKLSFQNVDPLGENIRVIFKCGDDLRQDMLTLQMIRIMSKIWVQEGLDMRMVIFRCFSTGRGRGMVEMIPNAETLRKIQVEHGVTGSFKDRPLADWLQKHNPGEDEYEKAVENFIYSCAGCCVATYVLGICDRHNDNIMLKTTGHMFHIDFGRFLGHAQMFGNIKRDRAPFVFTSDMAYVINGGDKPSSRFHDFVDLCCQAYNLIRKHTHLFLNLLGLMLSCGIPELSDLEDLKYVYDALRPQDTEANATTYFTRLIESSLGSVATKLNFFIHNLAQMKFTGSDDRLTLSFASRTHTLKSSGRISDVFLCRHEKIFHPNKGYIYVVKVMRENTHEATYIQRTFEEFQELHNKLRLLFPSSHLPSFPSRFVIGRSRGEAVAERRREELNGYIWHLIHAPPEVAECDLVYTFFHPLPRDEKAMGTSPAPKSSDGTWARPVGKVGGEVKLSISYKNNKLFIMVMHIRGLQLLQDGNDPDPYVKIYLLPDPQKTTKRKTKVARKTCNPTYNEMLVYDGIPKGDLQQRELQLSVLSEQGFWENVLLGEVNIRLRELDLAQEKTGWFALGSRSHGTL
Chain of Cyclin-dependent kinase 14 (Homo sapiens) (O94921 whole entry): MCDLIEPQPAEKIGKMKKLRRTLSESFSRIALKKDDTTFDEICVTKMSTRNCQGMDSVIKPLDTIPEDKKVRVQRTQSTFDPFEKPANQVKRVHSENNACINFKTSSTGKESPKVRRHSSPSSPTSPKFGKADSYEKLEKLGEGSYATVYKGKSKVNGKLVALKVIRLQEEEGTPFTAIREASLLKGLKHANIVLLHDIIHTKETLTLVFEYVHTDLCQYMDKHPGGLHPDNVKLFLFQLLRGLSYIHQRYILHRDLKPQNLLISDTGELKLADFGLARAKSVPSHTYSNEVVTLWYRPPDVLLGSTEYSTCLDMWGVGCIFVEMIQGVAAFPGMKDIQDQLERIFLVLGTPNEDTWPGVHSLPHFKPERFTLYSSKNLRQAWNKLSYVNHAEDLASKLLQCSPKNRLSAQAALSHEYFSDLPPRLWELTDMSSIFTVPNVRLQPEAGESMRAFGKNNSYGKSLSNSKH
Chain of Mitogen-activated protein kinase 12 (Homo sapiens) (P53778 whole entry): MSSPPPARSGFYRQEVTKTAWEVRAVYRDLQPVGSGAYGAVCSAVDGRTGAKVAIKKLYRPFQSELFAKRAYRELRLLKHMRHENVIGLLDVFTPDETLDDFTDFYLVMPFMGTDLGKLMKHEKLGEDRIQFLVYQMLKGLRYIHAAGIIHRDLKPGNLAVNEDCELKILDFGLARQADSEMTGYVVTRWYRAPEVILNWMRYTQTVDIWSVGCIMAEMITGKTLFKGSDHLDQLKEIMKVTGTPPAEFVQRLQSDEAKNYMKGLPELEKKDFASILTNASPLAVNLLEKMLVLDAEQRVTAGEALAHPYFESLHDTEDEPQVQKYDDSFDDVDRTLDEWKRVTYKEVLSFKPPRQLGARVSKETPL
Chain of Ribosomal protein S6 kinase alpha-6 (Homo sapiens) (Q9UK32 whole entry): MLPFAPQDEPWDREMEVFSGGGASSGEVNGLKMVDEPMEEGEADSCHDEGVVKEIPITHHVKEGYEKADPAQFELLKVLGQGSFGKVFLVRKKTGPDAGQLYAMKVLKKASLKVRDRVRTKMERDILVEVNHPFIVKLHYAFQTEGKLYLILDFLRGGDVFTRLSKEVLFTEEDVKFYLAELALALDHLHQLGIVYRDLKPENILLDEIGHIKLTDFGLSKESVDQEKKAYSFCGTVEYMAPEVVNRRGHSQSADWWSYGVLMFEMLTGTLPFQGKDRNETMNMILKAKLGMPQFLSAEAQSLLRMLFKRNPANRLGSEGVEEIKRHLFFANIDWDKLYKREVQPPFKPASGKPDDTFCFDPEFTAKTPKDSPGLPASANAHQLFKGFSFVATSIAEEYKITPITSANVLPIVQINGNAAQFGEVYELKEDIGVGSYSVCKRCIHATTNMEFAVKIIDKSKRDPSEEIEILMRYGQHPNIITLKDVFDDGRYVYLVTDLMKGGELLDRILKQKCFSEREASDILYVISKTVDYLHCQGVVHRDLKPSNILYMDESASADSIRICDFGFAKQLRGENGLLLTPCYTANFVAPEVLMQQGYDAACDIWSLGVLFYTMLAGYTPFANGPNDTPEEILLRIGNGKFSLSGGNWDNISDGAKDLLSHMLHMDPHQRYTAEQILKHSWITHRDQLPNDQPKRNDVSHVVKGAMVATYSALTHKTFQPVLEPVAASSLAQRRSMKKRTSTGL
Chain of Activin receptor type-1B (Homo sapiens) (P36896 whole entry): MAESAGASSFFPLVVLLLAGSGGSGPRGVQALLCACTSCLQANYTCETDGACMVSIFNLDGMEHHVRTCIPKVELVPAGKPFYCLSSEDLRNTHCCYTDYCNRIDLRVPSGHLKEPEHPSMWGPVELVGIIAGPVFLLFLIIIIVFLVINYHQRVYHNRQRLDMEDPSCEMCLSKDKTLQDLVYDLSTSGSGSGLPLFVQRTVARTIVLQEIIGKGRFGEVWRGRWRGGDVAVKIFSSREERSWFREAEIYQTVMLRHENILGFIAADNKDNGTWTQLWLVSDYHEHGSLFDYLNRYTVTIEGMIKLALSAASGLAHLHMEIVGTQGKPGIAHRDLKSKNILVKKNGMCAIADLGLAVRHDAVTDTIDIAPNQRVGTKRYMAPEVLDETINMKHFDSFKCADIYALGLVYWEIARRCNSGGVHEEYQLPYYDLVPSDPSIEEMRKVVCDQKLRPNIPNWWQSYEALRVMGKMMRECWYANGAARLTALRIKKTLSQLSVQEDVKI
Chain of Casein kinase II subunit alpha (Homo sapiens) (P68400 whole entry, looked up): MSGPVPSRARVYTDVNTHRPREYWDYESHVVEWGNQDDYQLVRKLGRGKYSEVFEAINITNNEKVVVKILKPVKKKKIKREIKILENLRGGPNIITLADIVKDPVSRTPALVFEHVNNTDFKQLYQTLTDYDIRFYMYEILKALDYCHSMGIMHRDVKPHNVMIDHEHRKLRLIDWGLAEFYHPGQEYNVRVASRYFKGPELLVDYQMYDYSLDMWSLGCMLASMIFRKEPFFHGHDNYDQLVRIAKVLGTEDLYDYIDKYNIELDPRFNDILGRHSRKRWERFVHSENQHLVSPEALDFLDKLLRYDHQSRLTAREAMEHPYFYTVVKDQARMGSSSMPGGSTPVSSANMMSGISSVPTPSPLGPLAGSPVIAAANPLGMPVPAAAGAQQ

## Cc1nc(N2CC[C@@H](O)C2)ncc1-c1cc(C(F)(F)F)cc2[nH]ncc12 [TP-004]
[1]
  residual activity: 79%
[2]
  residual activity: 100%
[3]
  residual activity: 87%
[4]
  residual activity: 100%
[5]
  residual activity: 70%
[6]
  residual activity: 94%
[7]
  residual activity: 60%
[8]
  residual activity: 72%
[9]
  residual activity: 100%
[10]
  inhibition: 7.69%
[11]
  residual activity: 63%
[12]
  residual activity: 82%
[13]
  residual activity: 68%
[14]
  residual activity: 53%
[15]
  residual activity: 100%
[16]
  residual activity: 100%
[17]
  inhibition: -2.23%
[18]
  residual activity: 99%
[19]
  residual activity: 70%
[20]
  residual activity: 100%
[21]
  residual activity: 100%
[22]
  residual activity: 71%
[23]
  residual activity: 78%
[24]
  residual activity: 100%
[25]
  residual activity: 100%
[26]
  residual activity: 63%
[27]
  residual activity: 82%
[28]
  inhibition: 10.6%
[29]
  residual activity: 85%
[30]
  residual activity: 60%
[31]
  residual activity: 84%
[32]
  IC50: 7 nM (active)
[33]
  residual activity: 100%
[34]
  residual activity: 84%
[35]
  residual activity: 97%
[36]
  residual activity: 100%
[37]
  residual activity: 100%
[38]
  inhibition: 16.2%
[39]
  residual activity: 90%
[40]
  residual activity: 67%
[41]
  residual activity: 77%
[42]
  residual activity: 100%
[43]
  residual activity: 66%
[44]
  residual activity: 100%
